In patent US9079913B2, “Spiro-oxindole MDM2 antagonists” (The Regents of the University of Michigan, priority 2009, dated 2015):
Where two headings read alike, the source gives them in different places.

Columns and labels:
[1] = target: recombinant human His-tagged MDM2 protein (residues 1-118) (Homo sapiens (Human), UniProt Q00987); experiment: Fluorescence-polarization MDM2 binding assay;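 further: fluorescence polarization read after three hours of incubation in potassium phosphate buffer containing bovine gamma globulin and Triton X-100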
Chain of recombinant human His-tagged MDM2 protein (residues 1-118) (Q00987 1-118): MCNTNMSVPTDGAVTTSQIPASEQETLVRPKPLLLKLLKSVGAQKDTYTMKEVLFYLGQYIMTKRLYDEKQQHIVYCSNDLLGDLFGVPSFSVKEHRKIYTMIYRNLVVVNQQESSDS

[2] = tested on: Isogenic HCT-116 colon cancer cell lines; experiment: cells; format: cell-based;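 further: cells grown in 96-well plates in McCoy's 5A medium with 10% FBS, exposed to compound for 4 days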
Description: Cells were seeded in 96-well flat bottom cell culture plates at a density of 2−3×10^3 cells/well with compounds and incubated for 4 days.

[3] = tested on: cancer cell lines with wild-type p53 / mutated or deleted p53 (ATCC); experiment: Cell growth assay (WST-8), other cancer cell lines; format: cell-based
[4] = Table 19C, read-out: Bidning affinities to MDM2 as determined using FP assay IC50
[5] = Homo sapiens, HCT-116, read-out: Cell growth inhibition using WST assay, HCT116 p53KO IC50, Table 19C, HCT116 p53KO
[6] = Homo sapiens, HCT-116, read-out: Cell growth inhibition using WST assay, HCT116 p53WT IC50, Table 19C, HCT116 p53WT
[7] = Homo sapiens, LNCaP, Table 19C, LNCaP cells, read-out: Cell growth inhibition using WST assay, LNCaP IC50
[8] = Homo sapiens, PC-3, Table 19C, PC3 cells, read-out: Cell growth inhibition using WST assay, PC3 IC50
[9] = Table 19D, read-out: MDM2 Binding Affinities IC50
[10] = Homo sapiens, HCT-116, read-out: HCT116p53KO IC50, Table 19D, HCT116 p53KO
[11] = Homo sapiens, HCT-116, read-out: HCT116p53WT IC50, Table 19D, HCT116 p53WT
[12] = Homo sapiens, LNCaP, Table 19D, LNCaP cells, read-out: LNCaP IC50
[13] = Homo sapiens, PC-3, Table 19D, PC3 cells, read-out: PC3 IC50
[14] = Table 19A, FP binding assay, read-out: MDM2 IC50
[15] = Homo sapiens, HCT-116, read-out: HCT-116 (p53-/-) IC50, Table 19A, HCT-116 p53-/-, cell growth
[16] = Homo sapiens, HCT-116, read-out: HCT-116 (p53 wild-type) IC50, Table 19A, HCT-116 p53 wild-type, cell growth
[17] = Homo sapiens, LNCaP, Table 19A, LNCAP cells, p53 wild-type, cell growth, read-out: LNCAP (p53 wild-type) IC50
[18] = Homo sapiens, PC-3, Table 19A, PC-3 cells, deleted p53, cell growth, read-out: PC-3 (deleted p53) IC50
[19] = Homo sapiens, Table 19D, SJSA-1 cells, unit inferred, read-out: SJSA-1

Row | Compound | IC50 [1, 9] [µM] | IC50 [2, 10] [µM] | IC50 [2, 11] [µM] | IC50 [3, 12] [µM] | IC50 [3, 13] [µM] | other results
1 | O=C(NCC[C@H](O)CO)[C@@H]1N[C@H](CC2(CCO)CCCC2)[C@]2(C(=O)Nc3cc(Cl)c(F)cc32)[C@H]1c1cccc(Cl)c1 [MI-319-37] |  |  |  |  |  | IC50 [1, 4]: < 1 µM; IC50 [2, 5]: > 30 µM; IC50 [2, 6]: < 10 µM; IC50 [3, 7]: < 5 µM; IC50 [3, 8]: > 30 µM
2 | O=C(NCC[C@H](O)CO)[C@H]1[C@H](c2cccc(Cl)c2)[C@@]2(C(=O)Nc3cc(Cl)c(F)cc32)[C@H]2CC3(CCCC3)CCN12 [MI-319-38] |  |  |  |  |  | IC50 [1, 4]: > 3 µM; IC50 [2, 5]: > 10 µM; IC50 [2, 6]: > 10 µM; IC50 [3, 7]: > 5 µM; IC50 [3, 8]: > 10 µM
3 | CC[C@H]1N[C@@H](C(=O)NCCN2CCOCC2)[C@H](c2cccc(Cl)c2)[C@@]12C(=O)Nc1cc(Cl)c(F)cc12 [MI-319-39] |  |  |  |  |  | IC50 [1, 4]: > 10 µM; IC50 [2, 5]: > 10 µM; IC50 [2, 6]: > 3 µM; IC50 [3, 7]: > 3 µM; IC50 [3, 8]: > 10 µM
4 | CC(C)(C)C[C@H]1N[C@@H](C(=O)NCC[C@H](O)CO)[C@H](c2ccc(F)c(Cl)c2)[C@@]12C(=O)Nc1cc(F)c(F)cc12 [MI-519-8] | < 3 | > 10 | < 5 | < 5 | > 10 | 
5 | CC(C)(C)C[C@H]1N[C@@H](C(=O)NCC[C@H](O)CO)[C@H](c2cccc(Cl)c2)[C@@]12C(=O)Nc1cc(F)c(F)cc12 [MI-519-9] | < 3 | > 10 | < 3 | < 3 | > 10 | 
6 | CN1[C@@H](C(=O)NCC[C@H](O)CO)[C@H](c2cccc(Cl)c2F)[C@@]2(C(=O)Nc3cc(F)c(F)cc32)[C@H]1CC(C)(C)C [MI-519-10-me] | < 10 | > 30 | > 1 | > 1 | > 30 | 
7 | CC(C)(C)C[C@H]1N[C@@H](C(=O)NCC[C@H](O)CO)[C@H](c2cccc(Cl)c2F)[C@@]12C(=O)Nc1cc(F)c(F)cc12 [MI-519-10] | < 3 | > 10 | < 3 | < 3 | > 10 | 
8 | CC(C)(C)C[C@H]1N[C@@H](C(=O)NCC[C@H](O)CO)[C@H](c2cccc(F)c2)[C@@]12C(=O)Nc1cc(F)c(F)cc12 [MI-519-11] | > 5 | > 10 | > 5 | > 5 | > 10 | 
9 | CC(C)(C)C[C@H]1N[C@@H](C(=O)NCC[C@H](O)CO)[C@H](c2ccc(F)c(F)c2)[C@@]12C(=O)Nc1cc(F)c(F)cc12 [MI-519-12] | < 10 | > 10 | < 3 | < 3 | > 10 | 
10 | CC(C)(C)C[C@H]1N[C@@H](C(=O)NCC[C@H](O)CO)[C@H](c2ccc(F)c(Cl)c2)[C@@]12C(=O)Nc1cc(F)ccc12 [MI-519-14] | < 1 | > 10 | < 5 | < 5 | > 10 | 
11 | CN1[C@@H](C(=O)NCC[C@H](O)CO)[C@H](c2cccc(Cl)c2)[C@@]2(C(=O)Nc3cc(F)ccc32)[C@H]1CC(C)(C)C [MI-519-15-me] | < 5 | > 10 | 5.2 | 6.4 | > 10 | 
12 | CC(C)(C)C[C@H]1N[C@@H](C(=O)NCC[C@H](O)CO)[C@H](c2cccc(Cl)c2)[C@@]12C(=O)Nc1cc(F)ccc12 [MI-519-15] | < 1 | > 10 | < 3 | < 5 | > 10 | 
13 | CC(C)(C)C[C@H]1N[C@@H](CO)[C@H](c2cccc(Cl)c2)[C@@]12C(=O)Nc1cc(Cl)c(F)cc12 [MI-519-20] | < 5 | 13.4 ± 0.8 | 1.9 ± 0.1 | 2.2 ± 0.2 | 9 ± 1.1 | 
14 | CCCN1CCN(CCNC(=O)[C@@H]2N[C@H](CC(C)(C)C)[C@]3(C(=O)Nc4cc(Cl)c(F)cc43)[C@H]2c2cccc(Cl)c2)CC1 [MI-519-21] | < 3 | 5.8 ± 1.9 | 1.4 ± 0.5 | 1.5 ± 0.6 | 4.8 ± 0.4 | 
15 | CC(C)(C)C[C@H]1N[C@@H](C(=O)NCCC2CCC(O)C2)[C@H](c2cccc(Cl)c2)[C@@]12C(=O)Nc1cc(F)c(F)cc12 (stereo partly shown) [MI-519-25] | < 3 | > 10 | < 3 | < 5 | > 10 | 
16 | CC(C)(C)C[C@H]1N[C@@H](C(=O)NCCC2CCC(O)C2)[C@H](c2cccc(Cl)c2)[C@@]12C(=O)Nc1cc(F)c(F)cc12 (stereo partly shown) [MI-519-26] | < 10 |  |  |  |  | IC50 ([2]; read-out: HCT116p53KO IC50, Table 19D, HCT116 p53KO): > 10 µM; IC50 ([2]; read-out: HCT116p53WT IC50, Table 19D, HCT116 p53WT): < 5 µM; IC50 ([3]; Table 19D, LNCaP cells, read-out: LNCaP IC50): < 5 µM; IC50 ([3]; Table 19D, PC3 cells, read-out: PC3 IC50): > 10 µM
17 | CC(O)C(O)CCNC(=O)[C@@H]1N[C@H](CC(C)(C)C)[C@]2(C(=O)Nc3cc(Cl)c(F)cc32)[C@H]1c1cccc(Cl)c1 (stereo partly shown) [MI-519-30] |  |  |  |  |  | IC50 [1, 14]: < 2 µM; IC50 [2, 15]: 19.6 ± 5.2 µM; IC50 [2, 16]: 1.3 ± 0.3 µM; IC50 [3, 17]: 1.1 µM; IC50 [3, 18]: 19.1 ± 2.4 µM
18 | CC(C)(C)C[C@H]1N[C@@H](C(=O)NCCN2CC[C@H](O)C2)[C@H](c2cccc(Cl)c2)[C@@]12C(=O)Nc1cc(Cl)c(F)cc12 [MI-519-35] |  |  |  |  |  | IC50 [1, 14]: < 1 µM; IC50 [2, 15]: 5.3 ± 0.6 µM; IC50 [2, 16]: 1.8 ± 0.5 µM; IC50 [3, 17]: 1.4 ± 0.5 µM; IC50 [3, 18]: 6.7 ± 0.9 µM
19 | CC(C)(C)C[C@H]1N[C@@H](C(=O)NCC2CC(O)C(O)C2)[C@H](c2cccc(Cl)c2)[C@@]12C(=O)Nc1cc(Cl)c(F)cc12 (stereo partly shown) [MI-519-36] |  |  |  |  |  | IC50 [1, 14]: < 1 µM; IC50 [2, 15]: 29.8 ± 6.5 µM; IC50 [2, 16]: 1.2 ± 0.6 µM; IC50 [3, 17]: 0.9 ± 0.1 µM; IC50 [3, 18]: 20.6 ± 5.3 µM
20 | CC(C)(C)C[C@H]1N[C@@H](C(=O)NCC2CC(O)C(O)C2)[C@H](c2cccc(Cl)c2)[C@@]12C(=O)Nc1cc(Cl)c(F)cc12 (stereo partly shown) [MI-519-37] |  |  |  |  |  | IC50 [1, 14]: < 1 µM; IC50 ([2]; read-out: HCT-116 (p53-/-) IC50, Table 19A, HCT-116 p53-/-, cell growth): 14.9 ± 2 µM; IC50 ([2]; read-out: HCT-116 (p53 wild-type) IC50, Table 19A, HCT-116 p53 wild-type, cell growth): 1 ± 0.5 µM; IC50 ([3]; Table 19A, LNCAP cells, p53 wild-type, cell growth, read-out: LNCAP (p53 wild-type) IC50): 0.6 ± 0.1 µM; IC50 ([3]; Table 19A, PC-3 cells, deleted p53, cell growth, read-out: PC-3 (deleted p53) IC50): 14 ± 2.2 µM
21 | CN1CCC(NC(=O)[C@@H]2N[C@H](CC(C)(C)C)[C@]3(C(=O)Nc4cc(Cl)ccc43)[C@H]2c2cccc(Cl)c2F)CC1 [MI-519-52] | < 1 | > 5 | < 1 | < 1 | > 3 | IC50 [3, 19]: < 1 µM
22 | CN1CCC(CNC(=O)[C@@H]2N[C@H](CC(C)(C)C)[C@]3(C(=O)Nc4cc(Cl)ccc43)[C@H]2c2cccc(Cl)c2F)CC1 [MI-519-53-1] | < 1 | > 3 | < 1 | < 1 | > 3 | IC50 [3, 19]: < 1 µM
23 | CC(C)(C)C[C@H]1N[C@@H](C(=O)N[C@H]2CC[C@@H](N)C2)[C@H](c2cccc(Cl)c2F)[C@@]12C(=O)Nc1cc(Cl)ccc12 [MI-519-55] | < 1 | > 5 | < 2 | < 2 | > 3 | IC50 [3, 19]: < 3 µM
